In assay [1] the test system is full thickness wounds in human skin graft on SCID mice. Description: Wound closure in human skin/SCID mouse chimera model. It counts as in vivo, human skin grafted on SCID mice. As to conditions: closed/total animals, ointment every two days, SBD.4 (HPLC-purified) in 2% CMC, becaplermin as Regranex. An excerpt: Human skin graft in severe combined immunodeficient (SCID) mice is a powerful model for evaluating the effect of wound-healing drug-candidates on full-thickness wounds (Juhasz et al., 1993). The wound model in human skin/SCID chimera features normal migration of neutrophils and macrophages to the wound bed, as well as normal expression of growth factors associated with wound-healing, and therefore provides a good approximation of human dermal wound-healing process (Matsumoto et al., 1997). The disadvantage of this model is that it is delicate to handle and time-consuming. The donor skin must be immediately placed on ice and taken to the lab, where a 10-hour grafting procedure follows. We used surgical waste skin obtained under informed consent from a patient undergoing abdominoplasty.
Skin was defatted (if it is not well defatted, the remaining adipose tissue easily undergoes necrosis, which interferes with graft taking. But on the other side, removing the underlying fat tissue too slowly or too zealously can also damage the skin and compromise the graft), and grafted (2.5×2.5 cm) on 15 SCID mice (Charles River Labs), using 10-12 stitches per graft. Here, the challenge is to suture the thick human skin with the much thinner rodent tissue.
After 6 weeks, when the graft anastomosed with the murine skin 8 mm (diameter) full thickness wounds were excised in the human skin. Mice received treatment (ointment every two days) of either becaplermin (Regranex, positive control), 2% carboxymethylcellulose (CMC, negative control) or SBD.4 in 2% CMC on the day of wounding and every second day thereafter. Initial wound closure (defined by the coverage of the base of the wound with bridging granular tissue and new epithelium) was assessed every 3 days.

Assay [2] concerns full thickness excisional wounds in genetically diabetic mice. Description: Wound closure in genetically diabetic mice. Format: in vivo, mouse. As to conditions: for Becaplermin (% closure): median, becaplermin 5 ug/wound in CMC gel, n = 6; for Stimulation by becaplermin relative to Control (control = 1): ratio of median closure, becaplermin 5 ug/wound. An excerpt:
We have chosen to use the genetically diabetic mice (13 week old female BKS Cg-m +/+ Lepr(db), stock # 642, Jackson Labs) because it is an optimal model reflecting the impaired wound healing in a segment of the population particularly vulnerable to chronic wounds—the diabetic patients. This genetically diabetic mouse model is well established as documented by over 50 publications (for example see Tsuboi et al., 1992). Many companies have also used it as a standard pre-clinical model, including Johnson & Johnson, which included it in the pre-clinical data package submitted to FDA as part of their IND application for becaplermin. […]
Twelve mice were divided in 2 groups and 8 mm (diameter) full thickness excisional wounds were performed under anesthesia on each side of the animal with a punch biopsy tool and covered by sterile gauze (occlusive dressings were not used as they considerably delay wound healing, according to the experience of the Principal Inventor and to the published reports (Lasa et al., 1993). The number of animals per group was based on the previous publications with this model; Jacobi et al., 2002). In Group 1 (the experimental treatment group), one wound on each animal was treated by 50 ul of “high” concentration of SBD.4 (10 mg per wound) and the other one by 50 ul of “low” concentration of SBD.4 (2 mg per wound). In Group 2 (negative control), both wounds were treated by PBS (phosphate buffered saline). Treatments were applied on the first day and every second day thereafter. Wound surface were measured every second day. Wound closure was determined by the following formula: percent closure={(area on day 0−open area)/area on day 0}×100. Wounds were considered closed if moist granulation tissue was no longer apparent, and the wound appeared covered with new epithelium.
Twelve mice were divided in two groups and two wounds per mouse were effectuated as in Example 5. In order to exclude the possibility of mouse-to-mouse variability in wound healing, in this experiment every mouse was treated by the test sample on one wound and by PBS (negative control) on another wound. Thus, one group of 6 mice was treated with 50 ul of SBD.4 (2 mg/wound) on one wound, and by 50 ul of PBS on the other wound, while the second group of 6 mice was treated with becaplermin (positive control; 5 ug in 50 ul CMC—carboxymethylcellulose—gel) on one and PBS on another wound. The concentration of becaplermin was based on the dose used by Johnson & Johnson in their pre-clinical studies (2) and on published studies with PDGF-B, in the db/db model (Greenhalgh et al., 1990).
Treatments were applied on the first day and every second day thereafter. Wound surface were measured every second day. Wound closure for each wound was determined by the formula: percent closure={(area on day 0−open area)/area on day 0}×100. Wounds were considered closed if moist granulation tissue was no longer apparent, and the wound appeared covered with new epithelium. The dynamics of wound closure for the 2 groups is plotted on FIG. 6 (means) and Table II (medians).

Assay [3] concerns bovine endothelial cells. Description: Tridimensional tube formation assay, in vitro. As to conditions: bFGF positive control, 15 ng/ml or 10 ng/ml; 2-5 weeks; FIG. 3C. It counts as cell-based. On the procedure:
FIG. 3. Tridimensional tube formation assay, in vitro. A: Capillary endothelial cells form a monolayer in the absence of a remodeling stimulus. B: SBD.4 (5 μg/ml, purified by HPLC) induces remodeling of the monolayer that culminates in a tridimensional network of capillary structures. […]
In this model, capillary-like structures are induced by plating bovine endothelial cells (about 8000 cells per well) in a 96 well tissue culture-treated plate (Costar) in DMEM supplemented with 5% calf serum (Hyclone, Logan, Utah), with or without an endothelial cell stimulatory growth factor. […] Cells grown without such factor form a monolayer (FIG. 3A).

“Becaplermin: becaplermin (Regranex, Johnson & Johnson), positive control for wound healing”: the “# animals showing initial wound closure” value was 0/5 in assay [1] (Day 3); 1/5 in assay [1] (Day 6); 2/4 in assay [1] (Day 9); 4/4 in assay [1] (Day 12); 4/4 in assay [1] (Day 16). Further, the “wound closure versus PBS” value in assay [2] (Example 6, becaplermin 5 ug in 50 ul CMC gel per wound, FIG. 6 means, one-way ANOVA) is on record as “not meaningfully different from the control”. In addition, the “Becaplermin (% closure)” value is 0.0% in assay [2] (Example 6, day 1); 1.7% in assay [2] (Example 6, day 3); 11.9% in assay [2] (Example 6, day 5); 41.2% in assay [2] (Example 6, day 7); 65.8% in assay [2] (Example 6, day 9); 86.7% in assay [2] (Example 6, day 11). For the same substance, the “Stimulation by becaplermin relative to Control (control = 1)” value in assay [2] (day 3) came out at 1.1; in assay [2] (day 5) it was 0.4; in assay [2] (day 7), 1.1; in assay [2] (day 9), 1.3; in assay [2] (day 11), 1.3.
Consider “bFGF: basic fibroblast growth factor, potent angiogenesis stimulator used as positive control”, for which the “induction of capillary-like structures (remodeling response)” value in assay [3] is “form capillary-like structures”.

These data come from patent US7927634B2, “Compositions and methods for treating angiogenesis-related diseases, wounds and cosmetic use of components of Angelica sinensis, and methods of preparation thereof” (Sunny Biodiscovery, Inc., priority 2004, dated 2011).
